Source: patent US20240398771A1, “TREATMENT OF SCLERODERMA AND RAYNAUD'S SYNDROME” (Aisa Pharma, Inc., priority 2023, published 2024)

Key:
participants with SSc-RP [1] = assay: SHAQ Alternative Disability Index; format: in vivo, human
From the text: The standard, validated, patient reported outcome measures tool for SSc patients, the Scleroderma Health Assessment Questionnaire (SHAQ), will be used to assess the participant qualify of life. Details are attached in the Appendix. The participant quality of life will be scored, and a disability index calculated for each questionnaire completed by the patient at Screening and each in-clinic visit. The absolute change in participant quality of life from baseline to the end of each dosing period will be calculated similar to frequency data as before.
The SHAQ is used to calculate a Disability Index to assess the participant qualify of life. The eight categories assessed by the Disability Index are 1) dressing and grooming, 2) arising, 3) eating, 4) walking, 5) hygiene, 6) reach, 7) grip, and 8) common daily activities. For each of these categories, patients report the amount of difficulty they have in performing two or three specific activities.
There are four possible responses for the Disability Index questions: • Without any difficulty=0 • With some difficulty=1 • With much difficulty=2 • Unable to do=3 • The highest score reported by the patient for any component question of the eight categories determines the score for that category. • If a component question is left blank or the response is too ambiguous to assign a score, then the score for that category is determined by the remaining completed question(s). • If all component questions are blank or if more than one answer is given, then follow up with the respondent is required. • If the respondent's mark is between the response columns, then move it to the closest one. If it's directly between the two, move it to the higher one.
The scoring variables and scoring rules permit the computation of two disability indices, the Standard Disability Index and the Alternative Disability Index.
The aid and device variables are not used to calculate the alternative disability index; it is calculated by adding the scores for each of the categories and dividing by the number of categories answered. This gives a score in the 0 to 3 range.

participants with SSc-RP [2] = assay: Average duration of weekly RP attacks, all attacks (minutes); format: in vivo, human; settings: Excluding Outliers, ITT Population - Part A (Table B-6)
From the text: The relevant metrics measured by this tool daily are: • Study medication • SSc-RP symptoms (Reporting an attack including duration of attack) • Severity of the attack considering all symptoms of the attack e.g. tingling, numbness, pain, color changes (VAS 0-10 cm scale) • Participant's location at the time of the attack (inside home/outside home) • Selecting symptoms experienced during the attack (tingling, numbness, pain, color changes, other) • Pain rating during the attack (11-point Likert scale) • The RCS based on how much difficulty participants had with Raynaud's today, how many attacks the participant had, and how long they lasted. Participants will also be asked to consider how much pain, numbness, or other symptoms the Raynaud's caused in fingers (including painful sores), and how much the Raynaud's alone affected the use of hands today (VAS 0-10 cm scale).
The absolute change in average duration of weekly RP attacks from baseline to the end of each dosing period was and will be a secondary outcome variable. The sponsor-developed participant-informed diary was and will be used to record data. Average duration of weekly RP attacks is defined as the total duration of RP attacks divided by total number of RP attacks within the last 7 days of each dosing period. Total duration of RP attacks during the last 7 days of screening period divided by the total number of RP attacks will be used as baseline for the analysis of all periods. The variable will be calculated similar to frequency data as before.

[3] = last 7 days of dosing period, listed as Cilnidipine 10 mg
[4] = last 7 days of dosing period, listed as Cilnidipine 20 mg
[5] = last 7 days of dosing period, listed as Pooled Cilnidipine
[6] = last 7 days of screening period, listed as Cilnidipine 10 mg
[7] = last 7 days of screening period, listed as Cilnidipine 20 mg
[8] = last 7 days of screening period, listed as Pooled Cilnidipine

For COCCOC(=O)C1=C(C)NC(C)=C(C(=O)OC/C=C/c2ccccc2)C1c1cccc([N+](=O)[O-])c1 (stereo not drawn) [Cilnidipine, 1,4-dihydro-2,6-dimethyl,4-(3-nitrophenyl)-3,5-pyridinedicarboxylic acid 2-methoxyethyl (2 E)-3-phenyl-2-propenyl ester], the “Alternative disability index, Baseline, Mean” value (participants with SSc-RP [1]; Cilnidipine 10 mg, Modified ITT, Part A) was 0.500, the “Alternative disability index, Baseline, Median” value (participants with SSc-RP [1]; Cilnidipine 20 mg, Modified ITT, Part A) was 0.250 and the “patient-reported SSc disease alternative disability compared to placebo” value (participants with SSc-RP [1]; Example 4, SHAQ, mITT Part A) was “may reduce”. The “Average Duration of weekly RP attacks (All Attacks), Max” value (shortened to “Average Duration … (All Attacks), Max”) (participants with SSc-RP [2]; [3]) was 31.5, 31.5 minutes, the “Average Duration of weekly RP attacks (All Attacks), Min” value (participants with SSc-RP [2]; [3]) was 31.5, 31.5 minutes and the “Average duration of weekly RP attacks (All Attacks), Change from Baseline, Max” value (participants with SSc-RP [2]; [3]) was −8.5, −8.5 minutes. For the same compound, the “Average duration of weekly RP attacks (All Attacks), Change from Baseline, Min” value (participants with SSc-RP [2]; [3]) was −8.5, −8.5 minutes, the “Average duration of weekly RP attacks (All Attacks), Change from Baseline, Q1” value (participants with SSc-RP [2]; [3]) was −8.48, −8.48 minutes and the “Average duration of weekly RP attacks (All Attacks), Change from Baseline, Q3” value (participants with SSc-RP [2]; [3]) was −8.48, −8.48 minutes. The “Average duration of weekly RP attacks (All Attacks), Percent Change from Baseline, Max” value (participants with SSc-RP [2]; [3]) was −21.2, −21.2%, the “Average Duration of weekly RP attacks (All Attacks)” value (participants with SSc-RP [2]; [4]) was 3.0 min and the “Average Duration … (All Attacks), Max” value (participants with SSc-RP [2]; [4]) was 30.5 min. The “Average Duration of weekly RP attacks (All Attacks), Q1” value (participants with SSc-RP [2]; [4]) was 3.00 min, the “Average duration of weekly RP attacks (All Attacks), Change from Baseline” value (participants with SSc-RP [2]; [4]) was -7.6 min and the “Average duration of weekly RP attacks (All Attacks), Change from Baseline, Max” value (participants with SSc-RP [2]; [4]) was 5.5 min. For the same compound, the “Average duration of weekly RP attacks (All Attacks), Change from Baseline, Q3” value (participants with SSc-RP [2]; [4]) was 5.45 min, the “Average duration of weekly RP attacks (All Attacks), Percent Change from Baseline, Max” value (participants with SSc-RP [2]; [4]) was 21.8% and the “Average duration of weekly RP attacks (All Attacks), Percent Change from Baseline, Min” value (participants with SSc-RP [2]; [4]) was −71.8%. For the same compound, the “Average duration of weekly RP attacks (All Attacks), Percent Change from Baseline, Q1” value (participants with SSc-RP [2]; [4]) was −71.76%, the “Average duration of weekly RP attacks (All Attacks), Percent Change from Baseline, Q3” value (participants with SSc-RP [2]; [4]) was 21.82% and the “Average Duration of weekly RP attacks (All Attacks)” value (participants with SSc-RP [2]; [5]) was 3.0 min. The “Average Duration … (All Attacks), Max” value (participants with SSc-RP [2]; [5]) was 31.5 min, the “Average Duration of weekly RP attacks (All Attacks), Q1” value (participants with SSc-RP [2]; [5]) was 3.00 min and the “Average duration of weekly RP attacks (All Attacks), Change from Baseline” value (participants with SSc-RP [2]; [5]) was -8.5 min. The “Average duration of weekly RP attacks (All Attacks), Change from Baseline, Max” value (participants with SSc-RP [2]; [5]) was 5.5 min, the “Average duration of weekly RP attacks (All Attacks), Change from Baseline, Q1” value (participants with SSc-RP [2]; [5]) was -8.48 min and the “Average duration of weekly RP attacks (All Attacks), Change from Baseline, Q3” value (participants with SSc-RP [2]; [5]) was 5.45 min. The “Average duration of weekly RP attacks (All Attacks), Percent Change from Baseline, Max” value (participants with SSc-RP [2]; [5]) was 21.8%, the “Average duration of weekly RP attacks (All Attacks), Percent Change from Baseline, Min” value (participants with SSc-RP [2]; [5]) was −71.8% and the “Average duration of weekly RP attacks (All Attacks), Percent Change from Baseline, Q1” value (participants with SSc-RP [2]; [5]) was −71.76%. The “Average duration of weekly RP attacks (All Attacks), Percent Change from Baseline, Q3” value (participants with SSc-RP [2]; [5]) was 21.82%, the “Average duration of weekly RP attacks (All Attacks), Baseline, Max” value (participants with SSc-RP [2]; [6]) was 40.0, 40.0 minutes and the “Average duration of weekly RP attacks (All Attacks), Baseline, Min” value (participants with SSc-RP [2]; [6]) was 40.0, 40.0 minutes. For the same compound, the “Average duration of weekly RP attacks (All Attacks), Baseline, Q1” value (participants with SSc-RP [2]; [6]) was 40.00, 40.00 minutes, the “Average duration of weekly RP attacks (All Attacks), Baseline, Q3” value (participants with SSc-RP [2]; [6]) was 40.00, 40.00 minutes and the “Average duration of weekly RP attacks (All Attacks), Baseline” value (participants with SSc-RP [2]; [7]) was 10.6 min. For the same compound, the “Average duration of weekly RP attacks (All Attacks), Baseline, Max” value (participants with SSc-RP [2]; [7]) was 25.0 min, the “Average duration of weekly RP attacks (All Attacks), Baseline, Q1” value (participants with SSc-RP [2]; [7]) was 10.63 min and the “Average duration of weekly RP attacks (All Attacks), Baseline, Q3” value (participants with SSc-RP [2]; [7]) was 25.00 min. For the same compound, the “Average duration of weekly RP attacks (All Attacks), Baseline” value (participants with SSc-RP [2]; [8]) was 10.6 min, the “Average duration of weekly RP attacks (All Attacks), Baseline, Max” value (participants with SSc-RP [2]; [8]) was 40.0 min and the “Average duration of weekly RP attacks (All Attacks), Baseline, Mean” value (participants with SSc-RP [2]; [8]) was 25.21 min.
